Data: ChEMBL document CHEMBL1142631, “Potential antitumor-promoting diterpenoids from the stem bark of Picea glehni” (J Nat Prod, 2000)

Legend:
Raji [1] = assay: Inhibition of 12-O-tetradecanoylphorbol 13-acetate-induced Epstein-Barr virus early antigen activation in human Raji cells assessed as EA induction at 100 mol ratio relative to TPA; values are per cent of control; details: human gammaherpesvirus 4
Raji [2] = assay: Inhibition of 12-O-tetradecanoylphorbol 13-acetate-induced Epstein-Barr virus early antigen activation in human Raji cells assessed as EA induction at 1000 mol ratio relative to TPA; values are per cent of control; details: human gammaherpesvirus 4
Raji [3] = assay: Inhibition of 12-O-tetradecanoylphorbol 13-acetate-induced Epstein-Barr virus early antigen activation in human Raji cells assessed as EA induction at 10 mol ratio relative to TPA; values are per cent of control; details: human gammaherpesvirus 4
[4] = Cytotoxicity against human Raji cells assessed as cell viability at 1000 molar ratio/TPA; assay type: cell-based; details: read-out: Activity
Raji [5] = assay: Inhibition of 12-O-tetradecanoylphorbol 13-acetate-induced Epstein-Barr virus early antigen activation in human Raji cells assessed as EA induction at 500 mol ratio relative to TPA; values are per cent of control; details: human gammaherpesvirus 4

Row | SMILES | level, % of control (Raji [1]) | level, % of control (Raji [2]) | level, % of control (Raji [3]) | viability at 1000 molar ratio/TPA [4] | level, % of control (Raji [5])
1 | C=C[C@]1(C)CC[C@@H]2[C@@]3(C)CC[C@@H](C)C(=C)[C@@H]3CC[C@@]2(C)O1 | 77.1% | 5.1% | 100% | 70% | 38.8%
2 | C=C[C@]1(C)CC[C@@H]2[C@@]3(C)CCCC(C)(C)[C@@H]3CC[C@@]2(C)O1 | 70.4% | 4.3% | 100% | 70% | 35.9%
3 | CC(C)[C@]12C=C3CC[C@H]4[C@](C)(C(=O)O)CCC[C@]4(C)[C@]3(CC1)OO2 | 63.7% | 0% | 90.5% | 70% | 24.2%
4 | CC(C)c1ccc2c(c1)CC[C@H]1[C@](C)(C(=O)O)CCC[C@]1(C)O2 | 85% | 10.2% | 96.9% | 60% | 52.7%
5 | CC(C)c1ccc2c(c1)C(=O)C[C@H]1C(C)(C)CCC[C@]21C | 74.7% | 0% | 95% | 70% | 30.2%
6 | CC(C)c1cc2c(cc1O)[C@@]1(C)CCC[C@@](C)(C(=O)O)[C@@H]1CC2 | 66.4% | 2.7% | 95.8% | 70% | 28%
7 | C=C1CCC[C@]2(C)c3ccc(C(C)C)cc3C(=O)C[C@@H]12 | 75.9% | 0% | 96.1% | 70% | 31.6%
8 | CC(=O)/C=C/[C@@H]1[C@@]2(C)CCCC(C)(C)[C@@H]2CC[C@@]1(C)O | 68.4% | 0% | 89.3% | 60% | 20.7%
9 | CC1=C(/C=C/C(C)=C/C=C/C(C)=C/C=C/C=C(C)/C=C/C=C(C)/C=C/C2=C(C)CCCC2(C)C)C(C)(C)CCC1 | 82% | 9% | 100% | – | 34%
10 | COC(=O)[C@]1(C)CCC[C@]2(C)c3ccc(C(C)(C)O)cc3C(=O)C[C@@H]12 | 72.9% | 0% | 95% | 70% | 28.1%
11 | CC(C)c1ccc2c(c1)CC[C@H]1[C@](C)(C(=O)O)CCC[C@]21C [DEHYDROABIETIC ACID] | 75% | 0% | 95.2% | 70% | 30.6%
